Data from ChEMBL document CHEMBL1155678, “Artoindonesianin C, a new xanthone derivative from Artocarpus teysmanii” (J Nat Prod, 2000).

Tests used:
[1] = tested on: Bombyx mori; assay: Inhibition of leucine uptake in Bombyx mori larval midgut brush border membrane vesicles at 0.2 uM; format: functional
[2] = Toxicity against Artemia salina; format: organism-based; conditions: in vivo

C=C(C)c1cc2c(=O)c3c(O)cc4c(c3oc2c2c1C(O)(C(=O)OC)CC2=O)C=CC(C)(C)O4 (configuration not stated) [ARTOINDONESIANIN C]
inhibition [1]: 20% | LC50 [2]: > 500 µg/mL
